Values quoted from earlier work in patent US8309490B2, “Low VOC and stable plant growth regulator liquid and granule compositions” (Valent BioSciences Corporation, priority 2009, dated 2012).

Settings: at 25° C.

O=C(Nc1ccccc1)Nc1ccnc(Cl)c1 [CPPU, forchlorfenuron]
water solubility: 39 ppm
